{"source": "patent US5641485A", "about": "“Caledothricins used in the treatment mycotic diseases” (Hoffmann-La Roche Inc., priority 1994, dated 1997)", "key": {"Aspergillus fumigatus [1]": {"tested_on": "Aspergillus fumigatus", "details": "pH 7.0, 27° C., 10,000 cfu/ml, 0.2% low melting point agarose", "method": "(§1) MIC is defined as the minimal concentration of test compound at which no visible growth is detected. Culture media employed for measuring MICs were yeast nitrogen base (Difco) supplemented with 1% of glucose, 0.2% of low melting point agarose and 0.25% of K2 HPO4 (pH 7.0). The low melting point agarose was omitted when antifungal activity against Candida albicans and Cryptococcus neoformans was measured. The culture media were inoculated with fungal cells at the final concentration of 10,000 cfu/ml. Plates were incubated for 1-12 days at 27° C."}, "[2]": {"tested_on": "Trichophyton mentagrophytes", "experiment": "In vitro antifungal activity (MIC) against Trichophyton mentagrophytes", "assay_type": "cell-based", "details": "strain CF1007, pH 7.0, 27° C., 10,000 cfu/ml, 0.2% low melting point agarose", "method": "as §1"}, "Candida albicans": {"tested_on": "Candida albicans", "experiment": "microbe, parasite or virus in culture", "method": "as §1"}, "Aspergillus fumigatus [3]": {"tested_on": "Aspergillus fumigatus", "experiment": "microbe, parasite or virus in culture", "details": "pH 7", "method": "as §1"}, "Cryptococcus neoformans": {"tested_on": "Cryptococcus neoformans", "experiment": "microbe, parasite or virus in culture", "method": "as §1"}, "Absidia corymbifera": {"tested_on": "Absidia corymbifera", "experiment": "In vitro antifungal activity (MIC) against Absidia corymbifera", "assay_type": "cell-based", "details": "Lichtheimia corymbifera; strain IFO8084; pH 7.0, 27° C., 10,000 cfu/ml, 0.2% low melting point agarose", "method": "as §1"}, "Trichosporon beigelii": {"tested_on": "Trichosporon beigelii", "experiment": "In vitro antifungal activity (MIC) against Trichosporon beigelii", "assay_type": "cell-based", "details": "ATCC28592, strain ATCC 28592, pH 7.0, 27° C., 10,000 cfu/ml, 0.2% low melting point agarose", "method": "as §1"}}, "note": "Like-named read-outs stand apart in the source and are kept apart here.", "data": [{"smiles": "OC(Cn1cncn1)(Cn1cncn1)c1ccc(F)cc1F", "note": "[FCZ, fluconazole]", "values": [{"measurement": "MIC", "setting": "Aspergillus fumigatus [1]; strain 437", "value": "> 200", "unit": "µg/mL"}, {"measurement": "MIC", "setting": "Aspergillus fumigatus [1]; strain CF1004", "value": "> 200", "unit": "µg/mL"}, {"measurement": "MIC", "setting": "[2]", "value": "> 200", "unit": "µg/mL"}, {"measurement": "MIC", "setting": "Candida albicans; ATCC48130, pH 7, strain ATCC48130, pH 7.0, 27° C., 10,000 cfu/ml", "value": "> 200", "unit": "µg/mL"}, {"measurement": "MIC", "setting": "Candida albicans; pH 7, strain 652, pH 7.0, 27° C., 10,000 cfu/ml", "value": "> 200", "unit": "µg/mL"}, {"measurement": "MIC", "setting": "Candida albicans; pH 7, strain AD, pH 7.0, 27° C., 10,000 cfu/ml", "value": 200, "unit": "µg/mL"}, {"measurement": "MIC", "setting": "Candida albicans; pH 7, strain C42, pH 7.0, 27° C., 10,000 cfu/ml", "value": "> 200", "unit": "µg/mL"}, {"measurement": "MIC", "setting": "Candida albicans; pH 7, strain KB, pH 7.0, 27° C., 10,000 cfu/ml", "value": "> 200", "unit": "µg/mL"}, {"measurement": "MIC", "setting": "Aspergillus fumigatus [3]", "value": "> 200", "unit": "µg/mL"}, {"measurement": "MIC", "setting": "Cryptococcus neoformans; pH 7, strain 422, pH 7.0, 27° C., 10,000 cfu/ml", "value": "> 200", "unit": "µg/mL"}, {"measurement": "MIC", "setting": "Cryptococcus neoformans; pH 7, strain MTU13001, pH 7.0, 27° C., 10,000 cfu/ml", "value": 12.5, "unit": "µg/mL"}, {"measurement": "MIC", "setting": "Absidia corymbifera", "value": "> 200", "unit": "µg/mL"}, {"measurement": "MIC", "setting": "Trichosporon beigelii", "value": 0.39, "unit": "µg/mL"}]}]}
